From US7704987B1, “β-amyloid peptide inhibitors” (Prana Biotechnology Ltd, priority 1999, dated 2010)

How the values were obtained:
Aβ1-28 = biological target: T1, Aβ1-28 (Homo sapiens, UniProt P05067); assay: 1H NMR reaction of compound with Aβ1-28; type: binding; conditions: ~1 equivalent, 24 hrs in DMSO; 600 MHz 1H NMR, pH 6.9, 271 K
T1 construct: adding two equivalents of Cu^2+ to Aβ1-28
Experimental: 1.8 mgs of Aβ1-28 was dissolved in 5 mls DMSO was mixed with 0.33 mgs of compound KJB001 (˜1 equivalent) dissolved in 0.3 mls DMSO. The mixture was allowed to stand for 24 hrs before being freeze-dried. The resulting blue powder was dissolved in 550 μl of an aqueous solution containing 100 mM NaCl, 50 mM phosphate buffer, pH 6.9. A solution of 1.8 mgs Aβ1-28 dissolved in 550 μl of the same solution was used as a control.

[1] = tested on: Aβ deposited in the brains of Alzheimer's disease patients; assay: Brain tissue assay: solubilisation of Aβ deposits from post-mortem AD brain (Western blot); parameters: species or system human; conditions: post-mortem brain homogenate in PBS, 24 h at room temperature, Western blot (FIG. 7); compound concentrations as in Table 1
[2] = tested on: cerebral cortical neuron cultures; assay: LDH assay for cell death: inhibition of Aβ1-42 neurotoxicity in vitro; type: cell-based; conditions: treatment alone; LDH release compared to untreated control cultures; 5 days; KJB030 dialysed, at most 20 μM; Aβ1-42 20 μM
Experimental: Compound KJB030 was dissolved in chelex 100-treated double distilled H2O (CH100-dH2O) at a concentration of 200 μM. Aβ1-42 was dissolved in either 200 μm KJB030 solution or in CH100-dH2O. Both solutions contained 200 μM Aβ1-42. The Aβ1-42 solutions were incubated at ambient temperature (˜20-24° C.) for 3 days. The solutions were then brought to a physiological state by adding 10× phosphate buffered saline (PBS), pH 7.4, thus bringing samples to 1×PBS. Samples were then incubated at 37° C. for 24 hr to induce aggregation of Aβ1-42. Samples were subsequently dialysed in microdialysis cups (3500 Mr cut-off) placed in 5 L PBS for 24 hr, in order to remove some of the excess KJB030 without loss of Aβ1-42.
Dialyzed samples were added to six day old cerebral cortical neuron cultures growing in Neurobasal medium with B27 supplements but without anti-oxidants (Gibco). Samples were diluted into the culture medium to a final concentration of 20 μM Aβ1-42. […]
Determination of cell death was performed using the lactate dehydrogenase (LDH) assay kit (Boehringer Mannheim). […] Culture medium was mixed with the reagents from the LDH kit as per the manufacturer's instructions and the level of LDH measured colourimetrically on a spectrophotometric 96 well plate reader at 490 nm.

T1 sequence (P05067 672-699): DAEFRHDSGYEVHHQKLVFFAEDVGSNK

| reaction with His6, His13, His14 of Aβ1-28 (shift of histidine C2H peaks) (Aβ1-28) | Molecule | ability to solubilise Aβ deposited in the brains of Alzheimer's disease patients [1] | % cell death [2] |
| --- | --- | --- | --- |
| had reacted with these residues | [Co+2].c1ccc2c(c1)-c1nc-2nc2[n-]c(nc3nc(nc4[n-]c(n1)c1ccccc41)-c1ccccc1-3)c1ccccc21 [KJB001, Co(II) phthalocyanine β-form] | particularly strong solubilising activity | – |
| – | CC(C)(C)c1cc(C=N[C@H]2CCCC[C@@H]2N=Cc2cc(C(C)(C)C)cc(C(C)(C)C)c2[O-])c([O-])c(C(C)(C)C)c1.[Cl-].[Mn+3] [KJB002, (S,S)-(+)-N-N′-bis(3,5-di-tert-butylsalicylidene)-1-2-cyclohexane diamino manganese(III) chloride] | good activity | – |
| – | [Mn+2].c1ccc2c(c1)-c1nc3nc(nc4[n-]c(nc5[n-]c(nc-2n1)c1ccccc51)c1ccccc41)-c1ccccc1-3 [KJB006, Manganese(II) phthalocyanine] | good activity | – |
| – | C1=Cc2nc1c(-c1ccccc1)c1ccc([nH]1)c(-c1ccccc1)c1nc(c(-c3ccccc3)c3ccc([nH]3)c2-c2ccccc2)C=C1.[Cl-].[Cl-].[Cl-].[Mn+3] [KJB007, 5,10,15,20-tetraphenyl-21H,23H-porphine manganese(III) chloride] | good activity | – |
| – | Aβ1-42: β-amyloid peptide 1-42, the neurotoxic agent in the LDH assay | – | 22 ± 3.5% |
